# Reference: patent US20230279002A1, “Polymorphs of Crystalline Forms of 3,10-dimethoxy-5,8,13,13a-tetrahydro-6H-isoquinolino[3,2-a]isoquinolin-9-yl 3-fluorobenzenesulfonate and Salts Thereof” (CVI Pharmaceuticals Limited, priority 2020, published 2023)
# Legend:
# Format in all cases: physicochemical
# [1] = Solid stability at 40° C./0% RH (closed) and 40° C./75% RH (open), HPLC; settings: for 0 day % remaining / 5 day % remaining / 10 day % remaining: solid
# Method: Solid stability: 5 mg of 2a was weighed into scintillation vials sealed properly and stored at 40° C./0% RH(closed), 40° C./75% RH(open) under dark conditions to avoid the effect of light on stability. Samples were collected at day 0, 5 and 10 and analyzed by HPLC.
# Solid stability: 5 mg of compound was weighed into vials sealed properly and stored at 40° C./0% RH (closed), 40° C./75% RH (open) under dark conditions to avoid the effect of light. Samples were analyzed by HPLC at days 0, 7, and 21.
# Solid stability of compound 1a: 5 mg compound were accurately weighed into scintillation vials sealed properly and stored at 40° C./0% RH(closed), 40° C./75% RH(open) under dark condition to avoid the effect of light on stability. Samples should be collected at day 0, 5 and 10 days and analyzed by HPLC.
# [2] = Solution stability in 0.1 N HCl, pH 4.5 buffer and pH 6.8 buffer at 25° C. and 37° C., HPLC; settings: summary of the Examples
# Method: Solution stability: A stock solution of compound (1.0 mg/mL) in MeOH was diluted with 0.1 N HCl, pH 4.5 buffer (acetate) and pH 6.8 buffer to reach constant ionic strength of 0.15 M and the same final concentration (50 μg/mL, 40% MeOH).
# A stock solution of 1b and 3b (1.0 mg/mL) in MeOH was diluted with pH 6.8 buffer to reach constant ionic strength of 0.15M and the same final concentration (25 μg/mL, 40% […]).
# The solutions were stored at 25° C. and 37° C.
# [3] = DVS (Dynamic Vapor Sorption) moisture sorption/desorption, hygroscopicity classification; settings: 25 °C; for Change In Mass (%) - ref, Desorption / Change In Mass (%) - ref, Sorption / Change In Mass (%) - ref, Hysteresis: Cycle 1
# Method: DVS (Dynamic Vapor Sorption): Around 10-20 mg of samples were used to test its moisture sorption/desorption profiles at 25° C. under 0%˜95%˜0% relative humidity (RH) cycle using dm/dt: 0.01%/min equilibrium and a measurement step of 5% RH.
# Hygroscopicity Classification: Typical %-moisture gain as a function of increased RH was determined by DVS. Samples went through a dynamic test isothermally at 25° C. The test was divided into 2 processes, one was absorption process, the other was desorption process. RH ranged from 0% to 95% with 5% RH for each step, and when dm/dt<=0.01%, it was assumed the water sorption/desorption equilibrium is reached.
# [4] = TGA (Thermal Gravimetric Analysis) weight loss; settings: for TGA weight loss (in words): room temperature to 120° C.
# Method: TGA (Thermal Gravimetric Analysis): Samples of compounds (4˜6 mg) were weighed into the pan, and heated under nitrogen purge using a ramp rate of 20° C./min over the range of 30° C.˜350° C.
smiles,measurement,setting,value
COc1ccc2c(c1)CCN1Cc3c(ccc(OC)c3OS(=O)(=O)c3cccc(F)c3)C[C@H]21 [Compound 2a],Solid-state stability (HPLC),"[1]; 40° C./0% RH (closed) and 40° C./75% RH (open), dark, up to 10 days",substantially stable
same,0 day % remaining,"[1]; 40° C. (0% RH, closed)",99.65%
same,5 day % remaining,"[1]; 40° C. (0% RH, closed)",101.65%
same,10 day % remaining,"[1]; 40° C. (0% RH, closed)",100.85%
same,0 day % remaining,[1]; 40° C./75% RH (open),99.65%
same,5 day % remaining,[1]; 40° C./75% RH (open),100.66%
same,10 day % remaining,[1]; 40° C./75% RH (open),101.31%
same,Stability compared with other polymorphs (summary),[2],most stable of the polymorphs
same,Hygroscopicity classification by DVS,[3],non-hygroscopic
same,"Change In Mass (%) - ref, Desorption",[3]; Target RH 0.0 %,−0.00505%
same,"Change In Mass (%) - ref, Sorption",[3]; Target RH 0.0 %,0.00011%
same,"Change In Mass (%) - ref, Desorption",[3]; Target RH 5.0 %,−0.0028%
same,"Change In Mass (%) - ref, Hysteresis",[3]; Target RH 5.0 %,−0.00426%
same,"Change In Mass (%) - ref, Sorption",[3]; Target RH 5.0 %,0.00146%
same,"Change In Mass (%) - ref, Desorption",[3]; Target RH 10.0 %,−0.00101%
same,"Change In Mass (%) - ref, Hysteresis",[3]; Target RH 10.0 %,−0.0046%
same,"Change In Mass (%) - ref, Sorption",[3]; Target RH 10.0 %,0.00359%
same,"Change In Mass (%) - ref, Desorption",[3]; Target RH 15.0 %,0.00000%
same,"Change In Mass (%) - ref, Hysteresis",[3]; Target RH 15.0 %,−0.00527%
same,"Change In Mass (%) - ref, Sorption",[3]; Target RH 15.0 %,0.00527%
same,"Change In Mass (%) - ref, Desorption",[3]; Target RH 20.0 %,0.00123%
same,"Change In Mass (%) - ref, Hysteresis",[3]; Target RH 20.0 %,−0.0055%
same,"Change In Mass (%) - ref, Sorption",[3]; Target RH 20.0 %,0.00673%
same,"Change In Mass (%) - ref, Desorption",[3]; Target RH 25.0 %,0.00247%
same,"Change In Mass (%) - ref, Hysteresis",[3]; Target RH 25.0 %,−0.00505%
same,"Change In Mass (%) - ref, Sorption",[3]; Target RH 25.0 %,0.00752%
same,"Change In Mass (%) - ref, Desorption",[3]; Target RH 30.0 %,0.00292%
same,"Change In Mass (%) - ref, Hysteresis",[3]; Target RH 30.0 %,−0.00527%
same,"Change In Mass (%) - ref, Sorption",[3]; Target RH 30.0 %,0.00819%
same,"Change In Mass (%) - ref, Desorption",[3]; Target RH 35.0 %,0.00393%
same,"Change In Mass (%) - ref, Hysteresis",[3]; Target RH 35.0 %,−0.00449%
same,"Change In Mass (%) - ref, Sorption",[3]; Target RH 35.0 %,0.00841%
same,"Change In Mass (%) - ref, Desorption",[3]; Target RH 40.0 %,0.0055%
same,"Change In Mass (%) - ref, Hysteresis",[3]; Target RH 40.0 %,−0.00314%
same,"Change In Mass (%) - ref, Sorption",[3]; Target RH 40.0 %,0.00864%
same,"Change In Mass (%) - ref, Desorption",[3]; Target RH 45.0 %,0.00673%
same,"Change In Mass (%) - ref, Hysteresis",[3]; Target RH 45.0 %,−0.00202%
same,"Change In Mass (%) - ref, Sorption",[3]; Target RH 45.0 %,0.00875%
same,"Change In Mass (%) - ref, Desorption",[3]; Target RH 50.0 %,0.00763%
same,"Change In Mass (%) - ref, Hysteresis",[3]; Target RH 50.0 %,−0.00191%
same,"Change In Mass (%) - ref, Sorption",[3]; Target RH 50.0 %,0.00954%
same,"Change In Mass (%) - ref, Desorption",[3]; Target RH 55.0 %,0.00853%
same,"Change In Mass (%) - ref, Hysteresis",[3]; Target RH 55.0 %,−0.00123%
same,"Change In Mass (%) - ref, Sorption",[3]; Target RH 55.0 %,0.00976%
same,"Change In Mass (%) - ref, Desorption",[3]; Target RH 60.0 %,0.00909%
same,"Change In Mass (%) - ref, Hysteresis",[3]; Target RH 60.0 %,−0.0009%
same,"Change In Mass (%) - ref, Sorption",[3]; Target RH 60.0 %,0.00998%
same,"Change In Mass (%) - ref, Desorption",[3]; Target RH 65.0 %,0.00954%
same,"Change In Mass (%) - ref, Hysteresis",[3]; Target RH 65.0 %,−0.00056%
same,"Change In Mass (%) - ref, Sorption",[3]; Target RH 65.0 %,0.0101%
same,"Change In Mass (%) - ref, Desorption",[3]; Target RH 70.0 %,0.01066%
same,"Change In Mass (%) - ref, Hysteresis",[3]; Target RH 70.0 %,0.00000%
same,"Change In Mass (%) - ref, Sorption",[3]; Target RH 70.0 %,0.01066%
same,"Change In Mass (%) - ref, Desorption",[3]; Target RH 75.0 %,0.01234%
same,"Change In Mass (%) - ref, Hysteresis",[3]; Target RH 75.0 %,0.00056%
same,"Change In Mass (%) - ref, Sorption",[3]; Target RH 75.0 %,0.01178%
same,"Change In Mass (%) - ref, Desorption",[3]; Target RH 80.0 %,0.01324%
same,"Change In Mass (%) - ref, Hysteresis",[3]; Target RH 80.0 %,0.00034%
same,"Change In Mass (%) - ref, Sorption",[3]; Target RH 80.0 %,0.0129%
same,"Change In Mass (%) - ref, Desorption",[3]; Target RH 85.0 %,0.01481%
same,"Change In Mass (%) - ref, Hysteresis",[3]; Target RH 85.0 %,0.0009%
same,"Change In Mass (%) - ref, Sorption",[3]; Target RH 85.0 %,0.01391%
same,"Change In Mass (%) - ref, Desorption",[3]; Target RH 90.0 %,0.01773%
same,"Change In Mass (%) - ref, Hysteresis",[3]; Target RH 90.0 %,0.00146%
same,"Change In Mass (%) - ref, Sorption",[3]; Target RH 90.0 %,0.01627%
same,"Change In Mass (%) - ref, Desorption",[3]; Target RH 95.0 %,0.02076%
same,"Change In Mass (%) - ref, Sorption",[3]; Target RH 95.0 %,0.02076%
same,moisture picked up (DVS),[3]; at 95% RH,about 0.02%
same,Temperature until which there is no weight loss,[4]; DSC and TGA,about 150 °C
same,TGA weight loss (in words),[4],almost no weight loss
same,TGA weight loss (in words),[4]; listed as Hydrochloride salt of compound 1a,almost no weight loss
